Activity calls are given as the source filed them.
Legend:
[1] = test system: BJ; assay: cytotoxicity toward BJ-TERT fibroblasts, dose response, cell-based, RAS-independent, luminescence (AID 1933); assay type: functional; conditions: Homo sapiens
[2] = test system: BJ; assay: cells; assay type: functional, cell-based; conditions: Homo sapiens
[3] = test system: BJ; assay: cytotoxicity toward BJ-TERT-LT-ST fibroblasts, dose response, cell-based, RAS-independent, luminescence (AID 1935); assay type: functional; conditions: Homo sapiens;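 also: BJ fibroblasts immortalized with TERT plus LT and ST oncogenes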
[4] = cytotoxicity toward DRD oncogenic fibroblasts, dose response, cell-based, non-viral oncogenic, luminescence (AID 1934); assay type: functional; conditions: Homo sapiens
[5] = molecular target: Latent membrane protein 1 (Human herpesvirus 4 (strain B95-8), UniProt P03230); assay: TES1-eGFP NF-kB reporter inhibition versus Tet-On dsRED, dose response, selectivity assay for LMP1 NF-kB inhibitor project, imaging, HEK293T, dual-color eGFP/dsRED, cherry-picks (AID 588398); assay type: functional, cell-based
Sequence of Latent membrane protein 1 (P03230 whole entry): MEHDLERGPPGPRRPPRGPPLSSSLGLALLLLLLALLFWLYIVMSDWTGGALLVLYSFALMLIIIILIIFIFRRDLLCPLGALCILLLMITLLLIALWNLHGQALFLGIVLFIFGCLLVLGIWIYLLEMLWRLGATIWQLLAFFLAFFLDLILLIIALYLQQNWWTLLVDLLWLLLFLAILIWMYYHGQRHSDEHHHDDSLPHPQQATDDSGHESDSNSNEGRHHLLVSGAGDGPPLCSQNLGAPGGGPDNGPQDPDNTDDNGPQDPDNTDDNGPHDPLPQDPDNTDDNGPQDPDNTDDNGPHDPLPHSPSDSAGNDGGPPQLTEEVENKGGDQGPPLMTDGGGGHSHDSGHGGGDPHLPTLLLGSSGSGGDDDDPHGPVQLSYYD

[6] = molecular target: Cysteine protease ATG4B (Homo sapiens, UniProt Q9Y4P1); assay type: functional;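 also: Fluorescence-based dose-response confirmation assay measuring inhibition of ATG4B activity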
Sequence of Cysteine protease ATG4B (Q9Y4P1 whole entry): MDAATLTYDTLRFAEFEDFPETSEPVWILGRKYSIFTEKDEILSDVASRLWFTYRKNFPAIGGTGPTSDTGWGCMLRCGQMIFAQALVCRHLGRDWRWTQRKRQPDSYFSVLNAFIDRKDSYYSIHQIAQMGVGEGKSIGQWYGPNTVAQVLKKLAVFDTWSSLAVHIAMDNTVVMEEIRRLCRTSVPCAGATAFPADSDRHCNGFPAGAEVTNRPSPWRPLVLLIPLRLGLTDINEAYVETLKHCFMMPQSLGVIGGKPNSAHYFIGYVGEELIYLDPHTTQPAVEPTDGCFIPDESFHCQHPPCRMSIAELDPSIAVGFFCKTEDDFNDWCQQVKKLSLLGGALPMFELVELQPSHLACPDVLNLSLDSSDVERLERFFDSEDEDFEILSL

[7] = molecular target: Phospholipase A2 (Homo sapiens, UniProt P04054); assay type: functional;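 also: confirmatory dose-response counterscreen on phospholipase A2, testing hits that came from an ultra-high-throughput screen for ATG4B inhibitors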
Sequence of Phospholipase A2 (P04054 whole entry): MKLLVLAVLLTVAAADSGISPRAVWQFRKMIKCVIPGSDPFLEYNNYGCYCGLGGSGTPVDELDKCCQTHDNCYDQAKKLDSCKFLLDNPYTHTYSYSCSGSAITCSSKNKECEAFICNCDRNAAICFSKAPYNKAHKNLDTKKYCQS

[8] = test system: HEK293; assay: NOD1 signaling inhibitors, primary screen, cell-based, luminescence, uHTS (AID 1578); assay type: functional; conditions: Homo sapiens
[9] = test system: HEK293; assay: cells; assay type: functional, cell-based; conditions: Homo sapiens
[10] = test system: HEK293; assay: cells; assay type: functional, cell-based; conditions: Homo sapiens; remark: listed apart in the source
[11] = Luminescence-based counterscreen assay for KLF5 inhibitors: dose response cell-based high throughput screening assay to identify cytotoxic compounds using the IEC-6 intestinal epithelial cell line. [Related pubchem assays: 1700 (Primary screen.), 1834 (Confirmation screen.), 1858 (Summary AID.), 1905 (Counterscreen.)]; assay type: functional
[12] = molecular target: Nucleotide-binding oligomerization domain-containing protein 2 (Homo sapiens, UniProt Q9HC29); assay: NOD2 signaling inhibitors, cell-based, luminescence, uHTS, HEK293 (AID 1566); assay type: functional
Sequence of Nucleotide-binding oligomerization domain-containing protein 2 (Q9HC29 whole entry, the tested form may be a part): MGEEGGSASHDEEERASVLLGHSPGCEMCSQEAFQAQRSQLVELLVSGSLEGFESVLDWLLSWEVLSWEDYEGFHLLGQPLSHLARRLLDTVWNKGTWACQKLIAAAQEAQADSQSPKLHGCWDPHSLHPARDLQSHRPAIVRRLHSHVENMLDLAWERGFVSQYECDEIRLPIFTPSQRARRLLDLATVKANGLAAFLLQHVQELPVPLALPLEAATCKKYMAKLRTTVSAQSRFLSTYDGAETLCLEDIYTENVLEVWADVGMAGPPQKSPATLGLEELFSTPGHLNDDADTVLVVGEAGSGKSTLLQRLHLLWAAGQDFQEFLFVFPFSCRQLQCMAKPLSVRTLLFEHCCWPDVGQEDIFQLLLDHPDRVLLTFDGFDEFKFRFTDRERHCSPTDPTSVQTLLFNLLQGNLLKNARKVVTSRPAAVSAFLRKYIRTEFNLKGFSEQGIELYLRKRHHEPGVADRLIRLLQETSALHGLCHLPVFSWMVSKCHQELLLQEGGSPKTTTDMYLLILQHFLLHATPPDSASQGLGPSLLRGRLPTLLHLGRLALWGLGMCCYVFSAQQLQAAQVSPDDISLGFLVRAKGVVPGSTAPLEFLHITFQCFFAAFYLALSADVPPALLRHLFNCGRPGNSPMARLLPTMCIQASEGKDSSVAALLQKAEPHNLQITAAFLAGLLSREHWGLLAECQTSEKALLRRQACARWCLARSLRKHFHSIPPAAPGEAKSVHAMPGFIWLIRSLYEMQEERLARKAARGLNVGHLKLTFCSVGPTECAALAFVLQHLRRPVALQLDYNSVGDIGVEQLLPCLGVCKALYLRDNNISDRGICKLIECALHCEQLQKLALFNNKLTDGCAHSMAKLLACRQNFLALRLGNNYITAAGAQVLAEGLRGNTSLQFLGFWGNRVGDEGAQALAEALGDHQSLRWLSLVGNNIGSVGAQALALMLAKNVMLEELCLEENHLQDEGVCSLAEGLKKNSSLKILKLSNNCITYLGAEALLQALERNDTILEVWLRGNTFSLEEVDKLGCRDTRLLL

[13] = test system: HEK293; assay: NOD2 signaling inhibitors in MDP-stimulated cells, cell-based, uHTS, luminescence (AID 2001); assay type: functional; conditions: Homo sapiens
[14] = test system: HEK293; assay: cells; assay type: functional, cell-based; conditions: Homo sapiens; remark: listed apart in the source
[15] = molecular target: Tumor necrosis factor (Homo sapiens, UniProt P01375); assay: TNFa-triggered NF-kB activation inhibitors, SAR follow-up, cell-based, revised (AID 2337); assay type: functional
Sequence of Tumor necrosis factor (P01375 whole entry, the tested form may be a part): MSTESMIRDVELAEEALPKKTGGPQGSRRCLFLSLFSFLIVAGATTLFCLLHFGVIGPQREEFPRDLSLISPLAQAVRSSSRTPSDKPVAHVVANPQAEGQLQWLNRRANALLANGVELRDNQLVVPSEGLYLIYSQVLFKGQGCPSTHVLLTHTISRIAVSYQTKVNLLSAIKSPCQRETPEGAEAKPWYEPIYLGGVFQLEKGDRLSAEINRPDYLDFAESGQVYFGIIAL

[16] = molecular target: T1, Nucleotide-binding oligomerization domain-containing protein 1 (Homo sapiens, UniProt Q9Y239); assay: NOD1 signaling inhibitors, SAR follow-up, revised (AID 2333); assay type: functional
T1 sequence (Q9Y239 whole entry): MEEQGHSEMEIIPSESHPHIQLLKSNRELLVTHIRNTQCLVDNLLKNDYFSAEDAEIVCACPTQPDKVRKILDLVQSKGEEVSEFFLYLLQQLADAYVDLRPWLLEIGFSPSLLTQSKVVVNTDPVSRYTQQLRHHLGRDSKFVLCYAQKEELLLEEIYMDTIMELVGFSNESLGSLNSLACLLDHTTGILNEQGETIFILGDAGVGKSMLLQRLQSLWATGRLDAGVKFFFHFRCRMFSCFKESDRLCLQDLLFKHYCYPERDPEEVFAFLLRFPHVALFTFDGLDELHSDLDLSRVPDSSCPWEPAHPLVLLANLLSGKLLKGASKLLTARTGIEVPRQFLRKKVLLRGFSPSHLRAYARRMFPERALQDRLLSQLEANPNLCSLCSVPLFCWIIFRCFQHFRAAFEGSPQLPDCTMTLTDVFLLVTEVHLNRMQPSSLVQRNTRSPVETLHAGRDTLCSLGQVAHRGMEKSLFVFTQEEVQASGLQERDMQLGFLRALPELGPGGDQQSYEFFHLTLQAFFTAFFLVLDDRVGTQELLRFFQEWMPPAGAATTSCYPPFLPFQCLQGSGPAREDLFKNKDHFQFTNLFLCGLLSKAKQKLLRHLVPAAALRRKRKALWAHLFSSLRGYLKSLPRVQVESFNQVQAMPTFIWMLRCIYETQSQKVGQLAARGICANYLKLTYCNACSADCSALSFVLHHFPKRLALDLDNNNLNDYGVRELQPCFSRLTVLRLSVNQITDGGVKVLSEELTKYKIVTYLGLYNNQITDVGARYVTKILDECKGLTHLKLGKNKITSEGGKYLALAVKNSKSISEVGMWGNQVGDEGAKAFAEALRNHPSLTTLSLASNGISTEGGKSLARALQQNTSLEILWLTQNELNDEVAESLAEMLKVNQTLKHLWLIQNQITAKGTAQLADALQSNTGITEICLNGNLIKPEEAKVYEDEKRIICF

[17] = cytotoxicity in HEK-293T cells, dose response, cytotoxicity control for TCR NF-kB inhibitor project, luminescence, T-cell screen hits (AID 489026); assay type: functional, cell-based;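 also: cells exposed to compound about 14 hours before the viability readout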
[18] = test system: H4; assay: inhibitors of control reporter signal in H4 cells – cell-based, plate reader, dry powder samples, counter-screen for prion reporter project, dose response (AID 540255); assay type: functional; conditions: Homo sapiens
[19] = test system: H4; assay: Inhibitors of Prion Protein 5' UTR mRNA Measured in Cell-Based System Using Plate Reader - 2078-01_Inhibitor_Dose_DryPowder_Activity. [Related pubchem assays (depositor defined):AID488894]; assay type: functional; conditions: Homo sapiens
[20] = test system: HEK293; assay: cells; conditions: Homo sapiens
[21] = molecular target: Eukaryotic translation initiation factor 4H (Homo sapiens, UniProt Q15056); assay: human eIF4H binding inhibitors, primary screen, translation initiation inhibitor project, biochemical, uHTS, fluorescence polarization (AID 2012)
[22] = molecular target: Induced myeloid leukemia cell differentiation protein Mcl-1 (Homo sapiens, UniProt Q07820); assay type: functional
Sequence of Induced myeloid leukemia cell differentiation protein Mcl-1 (Q07820 whole entry): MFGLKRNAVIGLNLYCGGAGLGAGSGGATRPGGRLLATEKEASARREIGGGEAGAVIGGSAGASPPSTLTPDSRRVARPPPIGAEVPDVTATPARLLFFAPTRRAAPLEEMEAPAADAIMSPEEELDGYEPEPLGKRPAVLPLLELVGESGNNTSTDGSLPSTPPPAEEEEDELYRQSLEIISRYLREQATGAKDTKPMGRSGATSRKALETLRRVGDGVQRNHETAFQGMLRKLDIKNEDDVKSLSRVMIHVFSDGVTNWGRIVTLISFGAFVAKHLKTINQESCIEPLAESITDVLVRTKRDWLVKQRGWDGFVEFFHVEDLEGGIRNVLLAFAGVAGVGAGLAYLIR

[23] = molecular target: Polyadenylate-binding protein 1 (Homo sapiens, UniProt P11940); assay: PABP poly(A) RNA binding inhibitors, primary screen, biochemical, fluorescence polarization, uHTS (AID 2014)
Sequence of Polyadenylate-binding protein 1 (P11940 whole entry): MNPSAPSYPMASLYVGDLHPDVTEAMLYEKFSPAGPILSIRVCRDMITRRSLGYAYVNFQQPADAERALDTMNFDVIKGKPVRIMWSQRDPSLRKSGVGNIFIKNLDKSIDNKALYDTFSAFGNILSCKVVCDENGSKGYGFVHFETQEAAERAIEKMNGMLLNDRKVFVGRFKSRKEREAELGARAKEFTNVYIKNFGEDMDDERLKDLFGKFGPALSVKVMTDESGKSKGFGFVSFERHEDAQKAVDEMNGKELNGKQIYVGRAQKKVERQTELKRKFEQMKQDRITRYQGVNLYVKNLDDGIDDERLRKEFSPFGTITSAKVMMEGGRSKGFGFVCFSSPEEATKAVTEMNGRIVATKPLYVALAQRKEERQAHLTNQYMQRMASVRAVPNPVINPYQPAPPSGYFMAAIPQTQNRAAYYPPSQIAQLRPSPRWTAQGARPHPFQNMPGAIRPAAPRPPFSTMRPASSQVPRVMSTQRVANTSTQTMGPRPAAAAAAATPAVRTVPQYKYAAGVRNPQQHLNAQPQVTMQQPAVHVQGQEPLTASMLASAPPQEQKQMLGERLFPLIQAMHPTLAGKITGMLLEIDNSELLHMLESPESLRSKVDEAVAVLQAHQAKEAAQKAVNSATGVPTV

[24] = molecular target: Beta-adrenergic receptor kinase 1 (Homo sapiens, UniProt P25098); assay: aptamer displacement from bead-bound GRK2 – biochemical, cherry pick 1, bead flow cytometry, dose response (AID 504500)
Sequence of Beta-adrenergic receptor kinase 1 (P25098 whole entry): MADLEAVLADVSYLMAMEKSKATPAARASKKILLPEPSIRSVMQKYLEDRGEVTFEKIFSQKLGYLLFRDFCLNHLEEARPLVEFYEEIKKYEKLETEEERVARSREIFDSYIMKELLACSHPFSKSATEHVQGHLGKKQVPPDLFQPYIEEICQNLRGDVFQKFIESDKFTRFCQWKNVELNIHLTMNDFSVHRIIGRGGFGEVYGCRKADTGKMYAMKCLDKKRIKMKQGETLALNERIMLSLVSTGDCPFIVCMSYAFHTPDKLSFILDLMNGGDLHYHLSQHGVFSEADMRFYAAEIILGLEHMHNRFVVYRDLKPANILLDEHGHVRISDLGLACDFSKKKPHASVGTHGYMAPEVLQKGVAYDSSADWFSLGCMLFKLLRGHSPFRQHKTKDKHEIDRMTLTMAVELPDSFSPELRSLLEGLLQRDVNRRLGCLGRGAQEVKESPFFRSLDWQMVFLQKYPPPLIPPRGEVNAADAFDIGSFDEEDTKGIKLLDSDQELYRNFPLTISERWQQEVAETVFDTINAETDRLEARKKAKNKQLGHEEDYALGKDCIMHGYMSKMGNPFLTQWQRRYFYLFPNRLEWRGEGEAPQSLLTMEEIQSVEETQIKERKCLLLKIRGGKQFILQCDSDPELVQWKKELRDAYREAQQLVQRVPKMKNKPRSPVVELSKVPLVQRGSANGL

[25] = molecular target: T2, Apoptotic protease-activating factor 1 (Homo sapiens, UniProt O14727); assay: activation of Apaf-1 mediated apoptosis – fluorescent, uHTS hits, dose response (AID 588554); assay type: functional
T2 sequence (O14727 whole entry): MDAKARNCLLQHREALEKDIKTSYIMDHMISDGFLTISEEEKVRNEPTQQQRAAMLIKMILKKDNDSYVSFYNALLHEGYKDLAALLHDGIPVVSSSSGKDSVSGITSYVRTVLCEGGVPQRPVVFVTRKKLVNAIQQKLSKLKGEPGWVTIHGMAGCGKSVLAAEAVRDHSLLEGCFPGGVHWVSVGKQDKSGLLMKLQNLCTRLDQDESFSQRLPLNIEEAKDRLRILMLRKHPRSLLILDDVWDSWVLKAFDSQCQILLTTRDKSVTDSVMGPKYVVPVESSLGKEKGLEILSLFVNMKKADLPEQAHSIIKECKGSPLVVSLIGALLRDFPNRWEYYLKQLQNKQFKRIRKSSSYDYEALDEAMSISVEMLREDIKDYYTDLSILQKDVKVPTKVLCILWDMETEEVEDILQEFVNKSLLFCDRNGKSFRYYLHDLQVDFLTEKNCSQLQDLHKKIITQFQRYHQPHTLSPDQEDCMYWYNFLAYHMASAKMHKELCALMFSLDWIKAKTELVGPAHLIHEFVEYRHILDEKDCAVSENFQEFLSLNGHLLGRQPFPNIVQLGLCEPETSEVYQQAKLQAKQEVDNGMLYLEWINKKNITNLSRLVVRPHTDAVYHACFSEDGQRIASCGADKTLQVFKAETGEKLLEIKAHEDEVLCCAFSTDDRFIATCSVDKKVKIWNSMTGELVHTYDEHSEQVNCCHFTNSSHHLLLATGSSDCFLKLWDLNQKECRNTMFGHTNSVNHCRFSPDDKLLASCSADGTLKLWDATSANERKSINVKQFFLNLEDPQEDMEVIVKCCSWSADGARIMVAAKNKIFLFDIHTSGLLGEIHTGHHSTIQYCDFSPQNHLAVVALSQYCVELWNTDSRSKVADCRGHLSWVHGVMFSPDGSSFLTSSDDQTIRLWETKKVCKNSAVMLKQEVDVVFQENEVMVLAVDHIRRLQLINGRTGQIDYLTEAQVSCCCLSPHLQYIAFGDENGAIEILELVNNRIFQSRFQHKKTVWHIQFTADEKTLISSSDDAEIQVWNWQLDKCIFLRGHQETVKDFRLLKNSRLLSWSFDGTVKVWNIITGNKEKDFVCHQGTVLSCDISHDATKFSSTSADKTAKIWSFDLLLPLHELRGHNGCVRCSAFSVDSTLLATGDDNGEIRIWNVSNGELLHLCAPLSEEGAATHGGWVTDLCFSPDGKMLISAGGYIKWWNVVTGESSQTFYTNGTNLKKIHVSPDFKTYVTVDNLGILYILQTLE

[26] = viability loss in Mcl1-dependent HMC-1-8 cells, dose response, selectivity assay for A1 inhibitor project, cell-based, luminescence, dry powder (AID 504415); assay type: functional; conditions: Homo sapiens
[27] = test system: HEK293; assay: cytotoxicity in HEK293T NF-kB-Luc cells, SAR follow-up, cytotoxicity control for NF-kB activator project, cell-based, resazurin fluorescence (AID 493251); assay type: functional; conditions: Homo sapiens
[28] = test system: Jurkat; assay: SAR Analysis of small molecule inhibitors of T-cell specific antigen receptor-induced NF-kB activation in a Jurkat cell line using a luminescence assay. [Related pubchem assays (depositor defined):AID435003, AID435012, AID465]; assay type: functional, cell-based; conditions: Homo sapiens
[29] = test system: HEK293; assay: SAR Analysis of small molecule inhibitors of T-cell specific antigen receptor-induced NF-kB activation in a HEK-293T cell line using a luminescence assay. [Related pubchem assays (depositor defined):AID435003, AID435012, AID489026]; assay type: functional, cell-based; conditions: Homo sapiens

CCOc1ccc(C(C)=O)cc1COc1cccnc1[N+](=O)[O-]
active: EC50 [1] 23.1 µM | EC50 [2] 32.2 µM | EC50 [4] 21.9 µM | AC50 [5] 80.9 µM
inconclusive: EC50 [3] > 150 µM

CC(C)c1ccc(NC2CCCN(C(=O)c3cc(C(C)C)n[nH]3)C2)cc1 (centres undefined)
active: IC50 [6] 16.8 µM | IC50 [7] 12.2 µM

CC(C)(C)c1ccc(C(=O)O/N=C(\N)c2ccccn2)cc1
23.1 µM (not active): IC50 [11]
active: EC50 [8] 2.73 µM | IC50 [9] < 0.312 µM | EC50 [12] 0.04 µM | IC50 [13] 3.04 µM | IC50 [15] 0.952 µM | IC50 [16] 2 µM | AC50 [18] 0.034 µM | AC50 [19] 0.032 µM
inactive: IC50 [10] > 20 µM | IC50 [14] > 20 µM | IC50 [17] > 80 µM | IC50 [20] > 20 µM

C=C(C)C(=O)Nc1cccc(C2=NOC3(C2)C[C@@H](C(N)=O)N(C(=O)c2ccc(Cl)cc2)C3)c1 (some centres undefined)
active: IC50 [21] 0.7 µM | IC50 [22] 1.54 µM | IC50 [23] 9.01 µM | EC50 [24] 0.73 µM | EC50 [25] 2.35 µM

O=c1oc2ccccc2c(Sc2ccccc2)c1[N+](=O)[O-]
active: AC50 [26] 56.1 µM

COc1ccc(C(NC(C)=O)c2ccc3cccnc3c2O)cc1 (centres undefined)
active: IC50 [27] 16.5 µM | IC50 [28] 4.23 µM | IC50 [29] 6.35 µM
